Patent US9034391B2, “Compositions with enhanced bioavailability and fast acting inhibitor or gastric acid secretion” (YALE UNIVERSITY, priority 2006, dated 2015)
Values joined by “and” are separate entries in the source; they are usually repeats but may differ in a detail not shown here. Equal entries are not always repeated. “Also recorded” adds a separate entry of the source.

How the values were obtained:
fundic H+,K+-ATPase = target: T1, fundic H+,K+-ATPase (Rattus norvegicus, UniProt P09626); assay: Intracellular pH recovery in isolated rat fundic (F1) glands; assay type: cell-based; settings: for effect on fundic (F1) acid secretion (in words): histamine 100 μM
T1 construct: Glands adjacent to the esophageal junction were hand dissected; from tissue; host or cells: hand-dissected fundic glands of Sprague Dawley rat stomach, next to the esophageal junction
Procedure: Male Sprague Dawley rats weighing 200-300 g were housed in climate and humidity controlled, light cycled rooms and fed standard chow with free access to water. Prior to experiments, animals were fasted while allowing free access to water for 18-24 hours to reduce basal acid secretion. Following isoflurane anesthesia the animals were sacrificed, an abdominal incision was made exposing the stomach. After isolating the esophagus and duodenal junctures a total gastrectomy was performed with 1-2 cm of esophagus remaining attached to the gastrectomy. We included the esophageal juncture to have a common landmark for all fundic isolations. While holding the esophagus with forceps approximately 3 mm of fundus was removed with 5 mm of the intact esophagus.
The removed fundic tissue was placed in ice cold HEPES-buffered Ringer-solution (pH adjusted to 7.4 at 4° C.) and transferred to the stage of a dissection microscope. The fundic glands were visualized under the microscope at 50× magnification. Glands adjacent to the esophageal junction were hand dissected. […]
Using the same protocol that we developed for isolated corpus gland perfusion^20a, 21a individual fundic glands were loaded with a […] of the pH sensitive dye (BCECF, (2′7-bis(2-carbocyethal)-5-(and 6)-carboxyflurorescein-acetomethylester; Molecular Probes, OR USA)) for 15 minutes. […] Acid extrusion was monitored in the absence of bicarbonate. […] Intracellular pH recovery rates (H^+, K^+-ATPase activity) were measured in Na^+ free HEPES solutions containing: 1) 100 μM histamine 2) 100 μM pentagastrin. […]
The recovery rates are expressed as the ΔpHi/min, and were calculated over the pH range of 6.5-6.9.
Activation of acid secretion via histamine, acetylcholine or pentagastrin was induced by preincubation of the glands for 15 min before the experiment combined with BCECF (100 μM) loading. All data are summarized as mean±S.E. Significance was determined using the one-way ANOVA test with p<0.05 considered to be statistically significant. […]

H+,K+-ATPase [1] = target: T2, H+,K+-ATPase (Rattus norvegicus, UniProt P09626); assay: Intracellular pH recovery in rat corpus glands (fundus/corpus comparison); assay type: cell-based; settings: corpus glands
T2 construct: Individual glands were isolated using a hand-dissection technique as described previously; from tissue; host or cells: hand-dissected rat gastric glands (corpus and antrum), parietal cells
Procedure: Molecular Probes, OR USA)) for 15 minutes. […] Measurements were performed in the epifluorescence mode with 60×/0.80 and 40×/0.90 objectives. […] Data points were acquired every 15 s. […] Acid extrusion was monitored in the absence of bicarbonate. […] All data are summarized as mean±S.E. Significance was determined using the one-way ANOVA test with p<0.05 considered to be statistically significant. All chemicals used were obtained from Sigma and Molecular Probes.

[2] = system: gastric acid secretion in freshly isolated rat whole stomach; assay: Whole stomach pH measurements, ex vivo rat whole stomach preparation
Procedure: Before the experiments animals were fasted for 24 h to reduce basal acid secretion to a consistent minimum. Animals were killed with an overdose of isoflurane and an abdominal incision was made. The stomach was ligated at the duodenal and esophageal junction and excised. Then 1 ml of non buffered, isotonic saline (140 mM) was infused into the lumen of the stomach. […] The stomachs were then placed in either oxygenated HEPES-buffered Ringer solution or in the same solution containing 100 μM histamine alone or additionally 300 μM ZnCl2 (pH 7.4) and maintained at 37° C. After 1 hour the stomach contents were aspirated and the pH was recorded.

H+,K+-ATPase [3] = target: T2, H+,K+-ATPase; assay: Intracellular pH recovery (BCECF, NH4Cl prepulse) in isolated rat gastric glands; assay type: cell-based
From the text: Following removal of the stomach, the stomach was opened longitudinally and the corpus and antrum isolated and sliced into 0.5 cm square sections, and washed with cold Ringer solution to remove residual food particles. The tissues were transferred to the stage of a dissecting microscope. Individual glands were isolated using a hand-dissection technique as described previously^36. Following isolation, individual isolated glands were allowed to adhere to cover slips that had been pre-coated with Cell-Tak (Collaborative Research, Bedford, Mass.) and were transferred to the stage of an inverted microscope.
Isolated gastric glands were incubated in a HEPES-buffered Ringer's solution containing either 10 μmol of the pH-sensitive dye BCECF-AM (2′,7′)-bis-(2-carboxyethyl)-5-(and -6)-carboxy-fluorescin, aceto-methyl ester (Molecular Probes, Eugene, Oreg.) for 10 minutes as described previously^37-39. […] A minimum of 8 cells or regions was selected per gland.
Proton extrusion by individual parietal cells was monitored by observing recovery of pHi after acid loading the cells with Na^+ free HEPES solution containing 20 mM NH4C1.
The recovery rates are expressed as the ΔpH/min, and were calculated over the pH range of 6.5-6.8.

[4] = system: histamine induced acid secretion; assay: Oral zinc supplementation in rats, histamine induced proton extrusion of isolated glands; assay type: in vivo, rat
From the text: Following dye-loading the chamber was flushed with a HEPES solution to remove all non-de-esterified dye. The perfusion chamber was mounted on the stage of an inverted microscope (Olympus IX50), which was used in the epifluorescence mode with a 40× objective. BCECF was successively excited at 440 nm and 490 nm from a monochromator light source, and the resultant fluorescent signal was monitored at 535 nm using an intensified charge-coupled device camera. Individual regions of interest were outlined and simultaneously monitored every 15 sec. during the course of the experiment. A minimum of 8 cells or regions was selected per gland.
Proton extrusion by individual parietal cells was monitored by observing recovery of pHi after acid loading the cells with Na^+ free HEPES solution containing 20 mM NH4C1. Parietal cells were subsequently superfused with Na^+ free HEPES, which abolished all Na^+/H^+ Exchanger (NHE) activity, trapping H^+ within the cytosol and initiating an immediate drop in pHi. Under these conditions, the only potential H^+ extrusion pathway is via the H^+,K^+-ATPase activation.
The intensity ratio data (490/440) were converted to pH values using the high K^+/nigericin calibration technique^40. Intracellular pH recovery rates were calculated from the same initial starting pH to eliminate the potential variation in the individual intracellular buffering power of the cells under the different experimental conditions. All data including the individual images for all wavelengths were recorded to the hard disk which allowed us to return to the individual images after the experiment for further analysis. The recovery rates are expressed as the ΔpH/min, and were calculated over the pH range of 6.5-6.8. All chemicals were obtained from Sigma and Molecular Probes. All data were summarized as means±SE and were analysed by grouping measurements at baseline values.

H+,K+-ATPase [5] = target: H+,K+-ATPase (Homo sapiens, UniProt P20648); settings: human gastric glands
H+,K+-ATPase (Homo sapiens, UniProt P20648), sequence (P20648 whole entry): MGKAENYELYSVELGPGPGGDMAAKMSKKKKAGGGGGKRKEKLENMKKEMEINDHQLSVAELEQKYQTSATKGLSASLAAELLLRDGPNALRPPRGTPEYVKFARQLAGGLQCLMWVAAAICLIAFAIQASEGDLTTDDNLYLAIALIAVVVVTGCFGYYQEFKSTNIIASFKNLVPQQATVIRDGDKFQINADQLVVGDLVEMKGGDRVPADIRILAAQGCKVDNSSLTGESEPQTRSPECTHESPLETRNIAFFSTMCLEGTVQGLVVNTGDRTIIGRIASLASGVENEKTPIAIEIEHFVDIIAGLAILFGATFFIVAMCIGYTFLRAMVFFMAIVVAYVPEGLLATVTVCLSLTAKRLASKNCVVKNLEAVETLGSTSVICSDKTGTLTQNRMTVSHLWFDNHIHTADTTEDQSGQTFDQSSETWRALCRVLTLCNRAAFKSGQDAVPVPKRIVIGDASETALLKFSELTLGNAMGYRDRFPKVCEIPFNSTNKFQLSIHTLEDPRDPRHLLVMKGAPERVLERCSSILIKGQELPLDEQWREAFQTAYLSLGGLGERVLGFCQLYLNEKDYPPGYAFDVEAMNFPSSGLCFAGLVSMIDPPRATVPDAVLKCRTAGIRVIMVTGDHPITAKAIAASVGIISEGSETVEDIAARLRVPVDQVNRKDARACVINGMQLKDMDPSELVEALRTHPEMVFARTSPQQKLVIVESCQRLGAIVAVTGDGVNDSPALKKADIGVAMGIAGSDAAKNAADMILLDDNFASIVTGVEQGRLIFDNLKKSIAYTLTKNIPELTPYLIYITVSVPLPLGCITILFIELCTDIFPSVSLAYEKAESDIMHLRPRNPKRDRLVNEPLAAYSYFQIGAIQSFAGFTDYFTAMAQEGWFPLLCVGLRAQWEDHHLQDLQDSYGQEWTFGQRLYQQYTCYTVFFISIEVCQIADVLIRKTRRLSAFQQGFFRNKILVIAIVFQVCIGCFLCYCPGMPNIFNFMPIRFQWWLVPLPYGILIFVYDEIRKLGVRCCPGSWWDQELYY
H+,K+-ATPase (Homo sapiens, UniProt P20648), sequence (P51164 whole entry partner): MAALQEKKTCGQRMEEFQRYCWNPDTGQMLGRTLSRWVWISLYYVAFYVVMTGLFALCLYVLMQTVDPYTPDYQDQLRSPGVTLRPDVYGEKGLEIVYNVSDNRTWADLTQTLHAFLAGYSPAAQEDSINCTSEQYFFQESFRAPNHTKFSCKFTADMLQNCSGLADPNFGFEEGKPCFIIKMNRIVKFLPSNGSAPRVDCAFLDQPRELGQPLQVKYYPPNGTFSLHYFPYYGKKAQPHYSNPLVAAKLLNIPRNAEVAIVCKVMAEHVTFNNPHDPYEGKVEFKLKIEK
Procedure: The human tissue was transferred from the OR in a HEPES-buffered Ringer solution. The tissue was stored on ice and immediately the isolated glands were dissected as described above.
Isolated gastric glands were incubated in a HEPES-buffered Ringer's solution containing either 10 μmol of the pH-sensitive dye BCECF-AM (2′,7′)-bis-(2-carboxyethyl)-5-(and -6)-carboxy-fluorescin, aceto-methyl ester (Molecular Probes, Eugene, Oreg.) for 10 minutes as described previously^37-39. Following dye-loading the chamber was flushed with a HEPES solution to remove all non-de-esterified dye. The perfusion chamber was mounted on the stage of an inverted microscope (Olympus IX50), which was used in the epifluorescence mode with a 40× objective. BCECF was successively excited at 440 nm and 490 nm from a monochromator light source, and the resultant fluorescent signal was monitored at 535 nm using an intensified charge-coupled device camera. Individual regions of interest were outlined and simultaneously monitored every 15 sec. during the course of the experiment. A minimum of 8 cells or regions was selected per gland.
Proton extrusion by individual parietal cells was monitored by observing recovery of pHi after acid loading the cells with Na^+ free HEPES solution containing 20 mM NH4C1. Parietal cells were subsequently superfused with Na^+ free HEPES, which abolished all Na^+/H^+ Exchanger (NHE) activity, trapping H^+ within the cytosol and initiating an immediate drop in pHi. […]
The intensity ratio data (490/440) were converted to pH values using the high K^+/nigericin calibration technique^40. Intracellular pH recovery rates were calculated from the same initial starting pH to eliminate the potential variation in the individual intracellular buffering power of the cells under the different experimental conditions. […] The recovery rates are expressed as the ΔpH/min, and were calculated over the pH range of 6.5-6.8. […] All data were summarized as means±SE and were analysed by grouping measurements at baseline values.

T2 sequence (P09626 whole entry): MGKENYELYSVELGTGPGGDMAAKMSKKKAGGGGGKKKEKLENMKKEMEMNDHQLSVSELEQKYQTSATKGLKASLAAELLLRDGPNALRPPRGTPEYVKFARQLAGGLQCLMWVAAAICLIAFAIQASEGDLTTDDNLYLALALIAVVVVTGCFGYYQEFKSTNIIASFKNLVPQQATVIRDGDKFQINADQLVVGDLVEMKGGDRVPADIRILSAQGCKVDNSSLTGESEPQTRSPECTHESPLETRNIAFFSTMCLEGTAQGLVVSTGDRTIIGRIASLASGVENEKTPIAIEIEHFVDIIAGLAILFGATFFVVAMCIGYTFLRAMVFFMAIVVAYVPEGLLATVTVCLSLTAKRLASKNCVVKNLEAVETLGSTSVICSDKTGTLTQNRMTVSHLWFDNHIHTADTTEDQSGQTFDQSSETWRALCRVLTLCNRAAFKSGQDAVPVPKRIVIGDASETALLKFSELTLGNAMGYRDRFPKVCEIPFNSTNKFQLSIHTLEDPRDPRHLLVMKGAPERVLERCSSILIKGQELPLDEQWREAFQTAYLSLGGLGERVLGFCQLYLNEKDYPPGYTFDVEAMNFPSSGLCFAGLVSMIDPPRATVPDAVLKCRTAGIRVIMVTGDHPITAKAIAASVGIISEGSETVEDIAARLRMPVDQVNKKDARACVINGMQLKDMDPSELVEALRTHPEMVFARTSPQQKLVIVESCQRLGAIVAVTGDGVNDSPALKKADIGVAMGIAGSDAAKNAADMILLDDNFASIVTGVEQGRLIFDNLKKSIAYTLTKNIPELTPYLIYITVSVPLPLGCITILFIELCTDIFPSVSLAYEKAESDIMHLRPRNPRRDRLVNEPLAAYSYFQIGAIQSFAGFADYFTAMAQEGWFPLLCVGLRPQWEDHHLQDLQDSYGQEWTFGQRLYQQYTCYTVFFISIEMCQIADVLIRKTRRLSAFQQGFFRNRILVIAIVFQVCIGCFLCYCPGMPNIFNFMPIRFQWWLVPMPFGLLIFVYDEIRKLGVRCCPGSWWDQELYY
T2 sequence (P18598 whole entry partner): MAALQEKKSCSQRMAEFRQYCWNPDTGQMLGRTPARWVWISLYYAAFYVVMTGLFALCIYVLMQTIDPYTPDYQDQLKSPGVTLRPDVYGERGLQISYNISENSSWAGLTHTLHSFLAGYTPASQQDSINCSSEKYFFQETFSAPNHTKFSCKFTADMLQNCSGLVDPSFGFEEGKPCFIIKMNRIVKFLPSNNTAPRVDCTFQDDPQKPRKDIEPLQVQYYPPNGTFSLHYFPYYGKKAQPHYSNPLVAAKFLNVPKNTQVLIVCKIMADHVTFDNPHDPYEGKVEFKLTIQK
T1 sequence (P09626 whole entry): as the sequence (P09626 whole entry) above
T1 sequence (P18598 whole entry partner): as the sequence (P18598 whole entry partner) above

Compound | effect on fundic (F1) acid secretion (in words) (fundic H+,K+-ATPase) | effect on corpus acid secretion (in words) (H+,K+-ATPase [1]) | luminal pH ([2]; 100 μM histamine and 300 μM ZnCl2, 1 hour) | luminal pH compared with histamine alone (in words) ([2]; 100 μmol histamine and 300 μmol ZnCl2) | inhibition of proton extrusion (H+,K+-ATPase [3]; 300 μM ZnCl2, compared to the histamine (100 μM) induced rate) [%] | onset of inhibition of histamine induced acid secretion (H+,K+-ATPase [3]; ZnCl2 300 μM added to superfusion bath during alkalinization, histamine 100 μM) | reversibility of inhibition after removal of ZnCl2 (H+,K+-ATPase [3]; ZnCl2 300 μM, histamine 100 μM) | effect on histamine induced acid secretion (in words) (H+,K+-ATPase [3]; rat gastric glands, histamine 100 μM, ZnCl2 25-300 μM) | histamine induced proton extrusion rate after oral ZnCl2 ([4]; 0.05 mg/kg/d ZnCl2 in drinking water for 5 days) | histamine induced proton extrusion rate after oral ZnCl2 ([4]; 150 mg/kg/d ZnCl2 in drinking water for 5 days) | effect on histamine stimulated proton efflux (in words) (H+,K+-ATPase [5]; histamine 100 μM, ZnCl2 300 μM) | F1 gland alkalinization rate (fundic H+,K+-ATPase; 100 μM secretagogue alone) | recovery rate (proton extrusion) of histamine stimulated parietal cells ([4]; control group with histamine alone, no ZnCl2) | proton efflux under histamine stimulation (in words) (H+,K+-ATPase [5]; histamine alone)
Cc1cccc(C)c1CNc1cc(C(=O)NCCO)cn2c(C)c(C)nc12 [AZD0865] | does not completely inhibit proton extrusion | effectively inhibits acid secretion | – | – | – | – | – | – | – | – | – | – | – | –
[Cl-].[Cl-].[Zn+2] [ZnCl2, zinc chloride] | – | – | 4.54±0.065 | higher pH | 98 | a few seconds | increase of the intracellular pH continued; also recorded: returns to normal levels | blocked; also recorded: dose dependent manner | 0.034±0.0036 ΔpH/min | 0.022±0.0045 ΔpH/min | blocked; also recorded: abolished | – | – | –
NCCc1c[nH]cn1 [histamine] | no effect | – | – | – | – | – | – | – | – | – | – | 0.042±0.007 ΔpHi/min and 0.040±0.0079 ΔpHi/min | 0.051±0.004 ΔpH/min | robust proton efflux
